Measurements taken from ChEMBL document CHEMBL3232999, “Computer-aided identification of novel 3,5-substituted rhodanine derivatives with activity against Staphylococcus aureus DNA gyrase” (Bioorg Med Chem, 2014).
Converted amounts (≈) assume the structure as drawn. The source made the active and inactive calls. No cut-off for these calls is given here.

Tests used:
Staphylococcus aureus [1] = assay: Antimicrobial activity against methicillin-resistant Staphylococcus aureus ATCC 33592 after 24 hrs by two-fold serial dilution method; type: functional; conditions: ATCC 33592, 24 h
Staphylococcus aureus [2] = assay: Antimicrobial activity against Staphylococcus aureus ATCC 6538 after 24 hrs by two-fold serial dilution method; type: functional; conditions: ATCC 6538, 24 h
Staphylococcus aureus [3] = assay: Antimicrobial activity against Staphylococcus aureus carolina after 24 hrs by two-fold serial dilution method; type: functional
[4] = target: DNA gyrase subunit B (Staphylococcus aureus) (UniProt P0A0K8); assay: Inhibition of Staphylococcus aureus DNA gyrase subunit B ATPase activity assessed as consumption of inorganic phosphate at 300 uM by PNP-based absorbance assay relative to control; values are per cent of control
[5] = target: DNA gyrase subunit B (Staphylococcus aureus) (UniProt P0A0K8); assay: Inhibition of Staphylococcus aureus DNA gyrase subunit B ATPase activity assessed as consumption of inorganic phosphate at 30 uM by PNP-based absorbance assay relative to control; values are per cent of control
Staphylococcus aureus [6] = assay: Antimicrobial activity against Staphylococcus aureus ISP 794 after 24 hrs by two-fold serial dilution method; type: functional; conditions: ISP 794, 24 h
[7] = target: DNA gyrase subunit B (Staphylococcus aureus) (UniProt P0A0K8); assay: Inhibition of Staphylococcus aureus DNA gyrase subunit B ATPase activity assessed as consumption of inorganic phosphate at 100 uM by PNP-based absorbance assay relative to control; values are per cent of control
[8] = target: T1, DNA gyrase (Staphylococcus aureus) (UniProt P0A0K8+P20831); assay: Inhibition of Staphylococcus aureus DNA gyrase-mediated supercoiling of relaxed DNA using N0471S as substrate at 20 uM after 30 mins by using […] staining-based agarose gel electrophoresis; type: protein-complex assay
[9] = target: T1, DNA gyrase (Staphylococcus aureus); assay: Inhibition of Staphylococcus aureus DNA gyrase-mediated supercoiling of relaxed DNA using N0471S as substrate at 160 to 500 uM after 30 mins by using […] staining-based agarose gel electrophoresis; type: protein-complex assay
[10] = target: DNA gyrase subunit B (Staphylococcus aureus) (UniProt P0A0K8); assay: Inhibition of Staphylococcus aureus DNA gyrase subunit B ATPase activity assessed as consumption of inorganic phosphate at 10 uM by PNP-based absorbance assay relative to control; values are per cent of control
Escherichia coli [11] = assay: Inhibition of Escherichia coli DNA gyrase-mediated supercoiling of relaxed DNA using N0471S as substrate after 30 mins by using […] staining-based agarose gel electrophoresis
DNA gyrase subunit B = DNA gyrase subunit B (Staphylococcus aureus, UniProt P0A0K8); assay: Inhibition of Staphylococcus aureus DNA gyrase subunit B ATPase activity assessed as consumption of inorganic phosphate by PNP-based absorbance assay
Escherichia coli [12] = assay: Antimicrobial activity against Escherichia coli MG1655 after 24 hrs by two-fold serial dilution method; type: functional; conditions: MG1655, 24 h
[13] = target: T1, DNA gyrase (Staphylococcus aureus); assay: Inhibition of Staphylococcus aureus DNA gyrase-mediated supercoiling of relaxed DNA using N0471S as substrate at 160 uM after 30 mins by using […] staining-based agarose gel electrophoresis; type: protein-complex assay

Sequence of DNA gyrase subunit B (Staphylococcus aureus) (P0A0K8 2-644 limits assumed): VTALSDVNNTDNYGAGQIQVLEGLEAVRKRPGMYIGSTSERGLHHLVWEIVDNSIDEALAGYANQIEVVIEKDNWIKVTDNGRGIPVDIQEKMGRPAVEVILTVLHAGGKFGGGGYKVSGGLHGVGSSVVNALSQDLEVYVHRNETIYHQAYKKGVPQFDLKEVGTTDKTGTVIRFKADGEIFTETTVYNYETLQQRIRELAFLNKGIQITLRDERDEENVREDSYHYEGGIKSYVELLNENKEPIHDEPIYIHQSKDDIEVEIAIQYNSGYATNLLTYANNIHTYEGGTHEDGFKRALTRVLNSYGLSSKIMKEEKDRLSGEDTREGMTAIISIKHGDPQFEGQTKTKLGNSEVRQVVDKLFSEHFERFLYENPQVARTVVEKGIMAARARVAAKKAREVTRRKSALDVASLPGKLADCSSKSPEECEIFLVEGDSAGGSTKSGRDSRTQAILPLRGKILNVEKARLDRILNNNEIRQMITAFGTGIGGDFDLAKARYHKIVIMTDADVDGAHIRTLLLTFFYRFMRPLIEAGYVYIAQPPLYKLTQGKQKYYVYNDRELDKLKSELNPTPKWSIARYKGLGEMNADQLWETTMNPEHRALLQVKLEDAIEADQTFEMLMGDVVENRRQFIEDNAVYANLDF
T1 sequence (P0A0K8 2-644 limits assumed): as above
T1 sequence (P20831 whole entry partner): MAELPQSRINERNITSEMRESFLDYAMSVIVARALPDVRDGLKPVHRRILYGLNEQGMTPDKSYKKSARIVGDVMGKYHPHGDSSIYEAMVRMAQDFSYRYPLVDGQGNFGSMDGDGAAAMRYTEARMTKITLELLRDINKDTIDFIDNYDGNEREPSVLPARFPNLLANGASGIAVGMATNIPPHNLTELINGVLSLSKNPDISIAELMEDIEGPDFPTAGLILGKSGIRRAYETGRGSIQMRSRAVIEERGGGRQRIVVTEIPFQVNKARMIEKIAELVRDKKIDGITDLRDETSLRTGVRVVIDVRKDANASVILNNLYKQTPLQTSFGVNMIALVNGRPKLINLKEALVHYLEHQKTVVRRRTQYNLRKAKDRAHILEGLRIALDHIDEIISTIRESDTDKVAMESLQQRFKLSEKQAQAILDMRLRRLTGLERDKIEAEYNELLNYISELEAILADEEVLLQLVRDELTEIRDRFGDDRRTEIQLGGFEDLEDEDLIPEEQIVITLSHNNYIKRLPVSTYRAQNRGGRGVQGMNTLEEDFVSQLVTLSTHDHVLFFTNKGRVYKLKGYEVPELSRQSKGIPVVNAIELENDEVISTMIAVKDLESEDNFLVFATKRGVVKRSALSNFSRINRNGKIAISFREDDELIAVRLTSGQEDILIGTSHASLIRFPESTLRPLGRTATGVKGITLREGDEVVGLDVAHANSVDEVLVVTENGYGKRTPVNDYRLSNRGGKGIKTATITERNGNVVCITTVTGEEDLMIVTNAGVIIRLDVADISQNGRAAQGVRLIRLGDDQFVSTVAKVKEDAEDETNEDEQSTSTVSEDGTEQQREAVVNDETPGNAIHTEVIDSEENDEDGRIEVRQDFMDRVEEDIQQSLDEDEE
Sequence of DNA gyrase subunit B (P0A0K8 whole entry): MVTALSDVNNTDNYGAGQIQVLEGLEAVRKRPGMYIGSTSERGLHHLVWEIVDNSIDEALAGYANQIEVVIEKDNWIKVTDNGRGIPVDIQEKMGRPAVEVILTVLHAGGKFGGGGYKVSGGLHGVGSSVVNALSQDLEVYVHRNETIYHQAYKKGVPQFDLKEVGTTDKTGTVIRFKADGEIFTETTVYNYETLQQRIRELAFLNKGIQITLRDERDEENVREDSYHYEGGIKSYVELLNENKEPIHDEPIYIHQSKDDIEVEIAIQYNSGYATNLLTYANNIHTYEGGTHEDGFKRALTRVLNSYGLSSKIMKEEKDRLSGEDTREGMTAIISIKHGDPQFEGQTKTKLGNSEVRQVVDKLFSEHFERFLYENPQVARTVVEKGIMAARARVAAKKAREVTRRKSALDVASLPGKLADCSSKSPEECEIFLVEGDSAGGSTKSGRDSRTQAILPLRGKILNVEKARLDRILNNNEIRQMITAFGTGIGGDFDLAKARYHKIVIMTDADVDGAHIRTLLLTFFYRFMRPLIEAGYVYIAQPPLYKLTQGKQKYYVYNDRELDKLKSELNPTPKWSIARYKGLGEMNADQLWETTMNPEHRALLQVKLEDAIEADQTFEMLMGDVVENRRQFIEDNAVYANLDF

For CC(=O)Oc1ccc([C@@H]2Oc3nc(SCc4ccccc4Cl)nnc3-c3ccccc3N2C(C)=O)cc1Br, the MIC (Staphylococcus aureus [1]) was 512 µg/mL (≈ 838 µM) and the MIC (Staphylococcus aureus [2]) was 512 µg/mL (≈ 838 µM).

Work on O=C1C[C@H](c2cccc(O)c2)Nc2ccc3ccccc3c21 yielded an MIC (Staphylococcus aureus [1]) of 62.5 µg/mL (≈ 216 µM) and an MIC (Staphylococcus aureus [2]) of 62.5 µg/mL (≈ 216 µM).

Work on COc1cccc([C@@H]2Nc3c(ccc(C(=O)O)c3C)[C@H]3C=CC[C@H]32)c1 yielded an MIC (Staphylococcus aureus [1]) of 125 µg/mL (≈ 373 µM) and an MIC (Staphylococcus aureus [2]) of 62.5 µg/mL (≈ 186 µM).

COc1cc([C@@H]2C3=C(CCCC3=O)Nc3[nH]c(SCc4ccccc4Cl)nc(=O)c32)ccc1O showed an MIC (Staphylococcus aureus [1]) of 500 µg/mL (≈ 1010 µM) and an MIC (Staphylococcus aureus [2]) of 500 µg/mL (≈ 1010 µM).

Molecule O=C(O)C[C@H](C(=O)O)N1C(=O)/C(=C\c2ccc(-c3cc(Cl)ccc3Cl)o2)SC1=S has an MIC (Staphylococcus aureus [3]) of 159 µM (≈ 75.1 µg/mL), a residual activity [4] of 23% and a residual activity [5] of 66%. For the same molecule, the MIC (Staphylococcus aureus [6]) was 159 µM (≈ 75.1 µg/mL), the residual activity [7] was 23% and the inhibition [8] was “inactive”. For the same molecule, the inhibition [9] was “Active”, the residual activity [10] was 84% and the inhibition (Escherichia coli [11]) was “inactive”. The IC50 (DNA gyrase subunit B) was 30 µM and the MIC (Escherichia coli [12]) was > 100 µg/mL.

For C/C(=N\NC(=O)c1nnn(-c2nonc2N)c1CN1CCc2ccccc21)c1ccc(O)cc1O, the MIC (Staphylococcus aureus [1]) was 525 µg/mL (≈ 1100 µM) and the MIC (Staphylococcus aureus [2]) was 525 µg/mL (≈ 1100 µM).

In the case of CCc1ccccc1N1C(=O)/C(=C/c2cccc(O)c2)SC1=S, the MIC (Staphylococcus aureus [3]) is reported as 27 µM (≈ 9.22 µg/mL), the MIC (Staphylococcus aureus [6]) is reported as 13.5 µM (≈ 4.61 µg/mL) and the inhibition (Escherichia coli [11]) is reported as “inactive”. The inhibition [13] was “Active” and the MIC (Escherichia coli [12]) was > 100 µg/mL.

O=C(O)C[C@H](c1ccccc1)N1C(=O)/C(=C/c2ccccc2Cl)SC1=S showed an MIC (Staphylococcus aureus [3]) of 46.5 µM (≈ 18.8 µg/mL), a residual activity [4] of 25% and a residual activity [5] of 76%. The MIC (Staphylococcus aureus [6]) was 31 µM (≈ 12.5 µg/mL), the residual activity [7] was 52% and the inhibition [8] was “inactive”. The residual activity [10] was 84%, the inhibition (Escherichia coli [11]) was “inactive” and the IC50 (DNA gyrase subunit B) was 100 µM. For the same molecule, the MIC (Escherichia coli [12]) was > 100 µg/mL.

Cc1cccc(NS(=O)(=O)c2cc(C(N)=O)ccc2Cl)c1C showed an MIC (Staphylococcus aureus [1]) of 62.5 µg/mL (≈ 184 µM) and an MIC (Staphylococcus aureus [2]) of 62.5 µg/mL (≈ 184 µM).

COc1ccc(N(CC(=O)Nc2ccccc2C(N)=O)S(=O)(=O)c2ccccc2)c(OC)c1 gave an MIC (Staphylococcus aureus [1]) of 250 µg/mL (≈ 532 µM) and an MIC (Staphylococcus aureus [2]) of 62.5 µg/mL (≈ 133 µM).

COc1ccc(C(=O)C2=C(O)C(=O)N(CCc3c[nH]c4ccccc34)[C@@H]2c2ccccc2Cl)cc1 gave an MIC (Staphylococcus aureus [1]) of 253 µg/mL (≈ 520 µM) and an MIC (Staphylococcus aureus [2]) of 253 µg/mL (≈ 520 µM).

Work on Cc1cccc([C@]2(C)CC(C)(C)N(C(=O)CSc3nc[nH]n3)c3ccccc32)c1 yielded an MIC (Staphylococcus aureus [1]) of 500 µg/mL (≈ 1230 µM) and an MIC (Staphylococcus aureus [2]) of 125 µg/mL (≈ 307 µM).

With CCOC(=O)C1=c2s/c(=C/c3ccccc3I)c(=O)n2C(N)=C(C#N)[C@@H]1c1ccccc1I the MIC (Staphylococcus aureus [1]) was 264 µg/mL (≈ 387 µM) and the MIC (Staphylococcus aureus [2]) was 264 µg/mL (≈ 387 µM).

Molecule COc1cc([C@H]2OC[C@H]3[C@H]2CO[C@@H]3c2ccc(O)c(OC)c2)ccc1O has an MIC (Staphylococcus aureus [1]) of 500 µg/mL (≈ 1400 µM) and an MIC (Staphylococcus aureus [2]) of 62.5 µg/mL (≈ 174 µM).

NC(=O)NC(=O)COC(=O)c1ccc(Cl)c(S(=O)(=O)N(Cc2ccccc2)c2ccc(Cl)cc2)c1 gave an MIC (Staphylococcus aureus [1]) of 500 µg/mL (≈ 932 µM) and an MIC (Staphylococcus aureus [2]) of 125 µg/mL (≈ 233 µM).

For CO[C@@H]1[C@@H](OC(N)=O)[C@@H](O)[C@H](Oc2ccc3c(O)c(NC(=O)c4ccc(O)c(CC=C(C)C)c4)c(=O)oc3c2C)OC1(C)C [NOVOBIOCIN], the MIC (Staphylococcus aureus [3]) was < 1.27 µM, the MIC (Staphylococcus aureus [6]) was < 1.27 µM and the MIC (Staphylococcus aureus [1]) was < 1.95 µg/mL. For the same molecule, the inhibition (Escherichia coli [11]) was “inactive”.
